Where “and” joins values, the source holds several entries; their conditions need not be identical. Identical values can stand only once. Like-named read-outs stand apart in the source and are kept apart here.
Columns and labels:
[1] = system: frozen buccal tissue; assay: Ex vivo permeation model of octreotide with permeation enhancers (Franz diffusion cell)
From the text: The Franz diffusion cell apparatus consists of two chambers separated by a membrane of, for example, animal or human skin. The test product is applied to the membrane via the top chamber. The bottom chamber contains fluid from which samples are taken at regular intervals for analysis to determine the amount of active that has permeated the membrane at set time points.
Applicants performed an ex vivo screening of permeation enhancers of octreotide delivery. Ex vivo porcine tissue was used, with a tissue thickness 300 um, 3 mg of octreotide and a time of up to 6 hours.

[2] = Octreotide compatibility of permeation enhancers (solubility without precipitation)
[3] = POC study in mini pigs, octreotide solution on buccal/sublingual mucosa after microneedles; assay type: in vivo; settings: pig, blood; for AUC / Cmax / bioavailability: 12 mg
From the text: Solutions were placed after scraping off mucin using a spatula and then treating the area with microneedles (750 um for buccal and 500 um for sublingual). Methocel (40% in water was used as a glue to attach the holder keeping the solution on to the tissue. The test material was colored so that any loss of drug during the experimental set up could be easily monitored.

[4] = as above; assay type: in vivo; settings: pig, blood, iv, 100 ug, 100 μg I.V.
[5] = Octreotide degradation on buccal tissue with microneedle application; assay type: in vitro ADME; settings: 4 hours at 37 degrees C.
Description: As shown in the Table below, the buccal tissue was subjected to microneedle application (10 times) and incubated with octreotide solution (2 ml, 1 mg/ml) for 4 hours at 37 degrees C.

[6] = system: buccal tissue; assay: HIFU as physical permeation enhancer, ex vivo permeation through full thickness tissue; assay type: in vitro ADME; settings: HIFU 30 seconds (180 watts, duty cycle 5%, PRF 10 Hz), two hours
From the text: In one example, the inventors used High Intensity Focused Ultrasound (HIFU) as physical permeation enhancer. HIFU can have mechanical, cavitational or thermal effects on the tissue depending on the Ultrasound parameters such as intensity, duty cycle, pulse repetition frequency and the exposure time. In this experiment, the buccal tissue was subjected to HIFU for 30 seconds (power of 180 watts, duty cycle 5%, PRF of 10 Hz) octreotide permeation through the tissue was monitored for two hours in the ex vivo permeation model described earlier (except using full thickness tissue which includes connective tissue of the sub-mucosa).

[7] = 10% w/w, Octreotide soluble after vigorous stirring
[8] = octreotide flux, enhancer 10 Wt %, frozen buccal tissue 300 um
[9] = octreotide permeation, 10% w/w, Octreotide soluble after vigorous stirring
[10] = 12 mg solution with 5 wt % DDTMAB applied to disrupted buccal mucosa
[11] = 12 mg with 5 wt % DDTMAB applied to disrupted sublingual mucosa

In the case of `CCCCCCCCCCCCOC(=O)C[N+](C)(C)C` [Glycine Betaine Ester C12], the “biodegradability, quantified by analysis of glycine betaine” value (biological media (plasma, esterase solution, simulated intestinal fluid, tissue homogenate), 37 degrees C.) is reported as “highly biodegradable”, the “degradability in acidic environment” value (simulated gastric fluid (pepsin/low pH)) is reported as “not degradable” and the Average flux [1] is reported as 3.14 ug/cm2*min. For the same compound, the flux [1] was 3-3.5 μg/cm^2*min.
With `CCCCCCCC/C=C\CCCCCCCCOC(=O)C[N+](C)(C)C` [Glycine Betaine Ester C18 (Oleyl)] the Average flux [1] was 0.51 ug/cm2*min and the flux [1] was 3-3.5 μg/cm^2*min.
For `CCCCCCCCCCCCCCCC[N+](C)(C)C.[Br-]` [drawing 5], the “Avg Flux” value ([1]; pig, 1 wt %) was 1.31 (1 wt %) μg/cm^2*min.
With `CCCCCCCCCCCCCCO[C@@H]1O[C@H](CO)[C@@H](O[C@H]2O[C@H](CO)[C@@H](O)[C@H](O)[C@H]2O)[C@H](O)[C@H]1O` [TDM] the “Permeation Ranking 0-1-2-3 None-Low-Med-High” value [1] was 1.
With `C[C@H](CCC(=O)NCC(=O)[O-])[C@H]1CC[C@H]2[C@@H]3CC[C@@H]4C[C@H](O)CC[C@]4(C)[C@H]3C[C@H](O)[C@]12C.[Na+]` [GDC, Sodium glycodeoxycholate] the “Octreotide Compatibility” value [2, 7] was “Yes”, the Average flux ([1]; octreotide flux, enhancer 0.1 Wt %, frozen buccal tissue 300 um) was 0.14 ug/cm2*min and the Average flux [1, 8] was 0.85 ug/cm2*min. For the same compound, the “Permeation Ranking 0-1-2-3 None-Low-Med-High” value [1, 9] was 2.
Work on Hydroxypropylcyclodextrin yielded an Average flux [1] of 0.15 ug/cm2*min.
In the case of `CCCCCCCCCCCCCCCCOP(=O)([O-])OCC[N+](C)(C)C` [Miltefosine (Hexadecyl Phosphatidyl Choline), reference compound], the Average flux [1] is reported as 0.14 ug/cm2*min.
`O=CC=Cc1ccccc1` [Cinnamaldehyde] showed an Average flux ([1]; pig, 1 Wt %) of 0.00 ug/cm2*min and an Average flux ([1]; pig, 3 Wt %) of 0.00 ug/cm2*min.
With `CCCCCCCC/C=C\CCCCCCCC(=O)O` [Oleic acid] the “Permeation Ranking 0-1-2-3 None-Low-Med-High” value ([1]; pig) was 0 and the Average flux ([1]; pig, 5 Wt %) was 0.01 ug/cm2*min.
For Dimethyl-cyclodextrin, the Average flux [1] was 0.53 ug/cm2*min and the “Permeation Ranking 0-1-2-3 None-Low-Med-High” value [1] was 1.
For `CCCCCCCCCCCCCCCC[N+](C)(C)C.[Br-]` [Hexadecyltrimethylammonium bromide], the “compatibility with octreotide in terms of solubility without causing precipitation” value [2] was “improved compatibility”, the permeation activity [1] was “most active” and the “Permeation Ranking 0-1-2-3 None-Low-Med-High” value ([1]; pig) was 3. For the same compound, the Average flux ([1]; pig, 1 Wt %) was 1.23 ug/cm2*min.
In the case of “Benzalkonium chloride [Benzalkonium chloride (BAC)]”, the “Permeation Ranking 0-1-2-3 None-Low-Med-High” value [1] is reported as 3.
With `CCCCCCCCCCCCCCCCOC(=O)C[N+](C)(C)C` [Glycine Betaine Ester C16] the Average flux [1] was 0.69 ug/cm2*min and the flux [1] was 3-3.5 μg/cm^2*min.
For `O=C(O)CN(CCN(CC(=O)O)CC(=O)O)CC(=O)O` [EDTA], the “Permeation Ranking 0-1-2-3 None-Low-Med-High” value ([1]; pig) was 1 and the Average flux ([1]; pig, 10 Wt %) was 0.10 ug/cm2*min.
For `CCCCCCCCCCCC[N+](C)(C)C.[Br-]` [Dodecyltrimethylammonium bromide], the “Octreotide Compatibility” value [2] was “Yes”, the “compatibility with octreotide in terms of solubility without causing precipitation” value [2] was “improved compatibility” and the permeation activity ([1]; aliphatic trimethyl-ammonium bromide surfactants at 1 wt % (FIG. 5)) was “most active”.
For `CCCCCCCC[N+](C)(C)C.[Br-]` [Octyltrimethylammonium bromide], the permeation activity [1] was “not active”.
`C[C@@H](O)[C@@H]1NC(=O)[C@H](CCCCN)NC(=O)[C@@H](Cc2c[nH]c3ccccc23)NC(=O)[C@H](Cc2ccccc2)NC(=O)[C@@H](NC(=O)[C@H](N)Cc2ccccc2)CSSC[C@@H](C(=O)N[C@H](CO)[C@@H](C)O)NC1=O` [octreotide acetate] gave a Tmax [3, 10] of 3 h, an AUC [3, 10] of 19.8 ng·h/mL and a Cmax [3, 10] of 4.2 ng/mL. The bioavailability [3, 10] was 1.11%, the AUC [3, 11] was 106 ng·h/mL and the Cmax [3, 11] was 25.6 ng/mL. It also gave a bioavailability [3, 11] of 5.97%, an AUC [4] of 14.8 ng·h/mL and a Cmax [4] of 31 ng/mL. The Tmax [4] was 4 min.
Work on `Cl.NCCCNCCCCNCCCN` [Spermine HCl] yielded an Average flux ([1]; pig, 10 Wt %) of 0.58 ug/cm2*min.
Compound `CCCCCCCCN1CCCC1=O` [Octyl pyrroldone] has an Average flux [1] of 0.10 ug/cm2*min.
Compound `CO[C@H]1CO[C@H]2[C@@H]1OC[C@H]2OC` [Dimethyl isosorbide] has an Average flux ([1]; octreotide flux, enhancer 5 Wt %, frozen buccal tissue 300 um) of 0.07 ug/cm2*min.
In the case of `C[C@@H](O)[C@@H]1NC(=O)[C@H](CCCCN)NC(=O)[C@@H](Cc2c[nH]c3ccccc23)NC(=O)[C@H](Cc2ccccc2)NC(=O)[C@@H](NC(=O)[C@H](N)Cc2ccccc2)CSSC[C@@H](C(=O)N[C@H](CO)[C@@H](C)O)NC1=O` [Octreotide], the remaining at 4 h, 1 mg/ml ([5]; + Tissue with microneedle (10 times)) is reported as 98%, the remaining at 4 h, 1 mg/ml ([5]; buccal tissue incubated with octreotide solution, + Tissue) is reported as 86% and the remaining at 4 h, 1 mg/ml ([5]; control without tissue, control, octreotide solution 2 ml, 1 mg/ml) is reported as 100%. The “octreotide permeated through the tissue” value [6] was roughly 60 µg, the flux ([1]; octreotide concentration of 5 mg/ml (FIG. 4)) was “approximately 0.500 ug/cm2*min” and the flux ([1]; octreotide concentration of 15-20 mg/ml (FIG. 4)) was 2.0-2.5 ug/cm2*min.
Work on `CN1CCCC1=O` [1-Methyl 2-Pyrrolidone] yielded an Average flux ([1]; pig, 5 Wt %) of 0.08 ug/cm2*min.
For `CCCCCC[N+](C)(C)C.[Br-]` [Hexyltrimethylammonium bromide], the permeation activity [1] was “not active”.
For Sodium Deoxycholate [DOC], the “Octreotide Compatibility” value [2, 7] was “Yes”, the Average flux [1, 8] was 0.49 ug/cm2*min and 0.41 ug/cm2*min and the “Permeation Ranking 0-1-2-3 None-Low-Med-High” value [1, 9] was 1.
For `O=C(O)CN(CCOCCOCCN(CC(=O)O)CC(=O)O)CC(=O)O` [EGTA], the “Permeation Ranking 0-1-2-3 None-Low-Med-High” value [1] was 0.

From patent publication US20190091281A1, “DELIVERY PHARMACEUTICAL COMPOSITIONS INCLUDING PERMEATION ENHANCERS” (AQUESTIVE THERAPEUTICS, INC., priority 2017, published 2019)
